Test results taken from PMC12254338 (Scientific Reports, 2025).
No end group written: not given here.

Molecular target: T1, Vps4p^∆N (lacks the MIT domain and linker; residues 101–437) (Saccharomyces cerevisiae, UniProt P52917)
T1 sequence (P52917 101-437): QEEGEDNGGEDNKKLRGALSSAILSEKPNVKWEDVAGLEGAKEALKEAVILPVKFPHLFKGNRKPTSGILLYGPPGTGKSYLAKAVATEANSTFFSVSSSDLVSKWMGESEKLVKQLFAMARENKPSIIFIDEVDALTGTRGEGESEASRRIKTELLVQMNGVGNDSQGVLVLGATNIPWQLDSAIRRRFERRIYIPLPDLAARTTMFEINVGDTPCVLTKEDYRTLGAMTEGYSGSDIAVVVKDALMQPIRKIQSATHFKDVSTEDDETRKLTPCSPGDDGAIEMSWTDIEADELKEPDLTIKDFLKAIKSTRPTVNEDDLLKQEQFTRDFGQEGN
T1 sequence (Q06263 280-330 partner limits assumed): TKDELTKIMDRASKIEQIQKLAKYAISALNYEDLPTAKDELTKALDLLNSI
Assay: Fluorescence polarization peptide binding assay to Vps4p^∆N
Set-up: species or system S. cerevisiae
Conditions: ratio of affinities

## EKEKEKEK-NH2 [(EK)4]
  Fold tighter binding than (KE)4: 6 fold
